Laboratory results reported in patent US20220389009A1, “SUBSTITUTED 1,6-NAPHTHYRIDINE INHIBITORS OF CDK5” (Goldfinch Bio, Inc., priority 2019, published 2022).

Assays:
[1] = target: CDK2/CycA2 (Homo sapiens, UniProt P24941); experiment: CDK2 mobility shift assay (enzymatic activity of CDK2/CycA2); assay type: biochemical; settings: 1.25 nM CDK2/CycA2, 37 μM ATP, FL Peptide 18, 120 min at room temperature; read-out: CDK2 IC50
Procedure, shortened: (§1)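 Carna CDK5/p25 (0.154 nM) or CDK2/CycA2 (1.25 nM) was preincubated 30 min with compound, ATP ([…] for CDK5; 37 μM for CDK2) and 10 mM MgCl2 in HEPES pH 7.5. The reaction was started with 1.5 μM FL peptide (29 for CDK5, 18 for CDK2) and run 60 min (CDK5) or 120 min (CDK2) at room temperature. Product was read by mobility shift, with IC50 from a 4-parameter fit.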

[2] = target: CDK5/p25 (Homo sapiens, UniProt Q00535); experiment: CDK5 mobility shift assay (enzymatic activity of CDK5/p25); assay type: biochemical; settings: for IC50: 0.154 nM CDK5/p25, FL peptide 29, 60 min at room temperature, read-out: CDK5 IC50; for CDK5/CDK2 specificity: fold more active against CDK5 than CDK2
Procedure, shortened: as §1

Sequence of CDK5/p25 (Q00535 whole entry): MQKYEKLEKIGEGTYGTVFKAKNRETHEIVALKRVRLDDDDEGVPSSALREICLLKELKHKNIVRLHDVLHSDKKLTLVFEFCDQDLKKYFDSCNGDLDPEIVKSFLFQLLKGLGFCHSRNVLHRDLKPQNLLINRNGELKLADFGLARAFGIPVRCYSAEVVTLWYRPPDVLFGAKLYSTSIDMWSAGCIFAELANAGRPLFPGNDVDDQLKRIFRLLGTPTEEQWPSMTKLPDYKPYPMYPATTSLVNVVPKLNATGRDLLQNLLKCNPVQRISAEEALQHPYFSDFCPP
Sequence of CDK5/p25 (Q15078 99-307 partner limits assumed): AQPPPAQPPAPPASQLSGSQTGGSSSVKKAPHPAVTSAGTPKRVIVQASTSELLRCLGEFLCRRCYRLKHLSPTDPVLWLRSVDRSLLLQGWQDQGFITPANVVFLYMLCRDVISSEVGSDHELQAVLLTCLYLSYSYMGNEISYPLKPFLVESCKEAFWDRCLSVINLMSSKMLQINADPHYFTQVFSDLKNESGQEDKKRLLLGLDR

Row | Structure (SMILES) | IC50 [1] [nM] | IC50 [2] [nM] | CDK5/CDK2 specificity [2]
1 | Cc1cccc(Nc2cc3nc(S(=O)(=O)C4CCN(C)CC4)ccc3cn2)c1 [Compound 382] | 10 to 100 | < 10 | +++ (greater than 100-fold more active against CDK5 than CDK2)
2 | CN1CCC(C(C)(O)c2ccc3cnc(Nc4ccc(-c5ccc(=O)[nH]c5)cc4F)cc3n2)CC1 (stereo not drawn) [Compound 383] | 10 to 100 | < 10 | ++ (greater than 10-fold and less than or equal to 100-fold more active against CDK5 than CDK2)
3 | CCN1CCC(S(=O)(=O)c2ccc3cnc(Nc4ccc(-n5cccn5)cc4F)cc3n2)CC1 [Compound 384] | 100 to 1000 | < 10 | +++ (greater than 100-fold more active against CDK5 than CDK2)
4 | CN1CCC(S(=O)(=O)c2ccc3cnc(Nc4ccccc4)cc3n2)CC1 [Compound 385] | 10 to 100 | < 10 | ++ (greater than 10-fold and less than or equal to 100-fold more active against CDK5 than CDK2)
5 | CC(c1ccc2cnc(Nc3ccc(-n4cccn4)cc3F)cc2n1)C1CCN(C)CC1 (stereo not drawn) [Compound 386] | 100 to 1000 | < 10 | ++ (greater than 10-fold and less than or equal to 100-fold more active against CDK5 than CDK2)
6 | CCC(O)(c1ccc2cnc(Nc3ccc(-n4cccn4)cc3F)cc2n1)C1CCN(C)CC1 (stereo not drawn) [Compound 389] | > 1000 | > 1000 | ++ (greater than 10-fold and less than or equal to 100-fold more active against CDK5 than CDK2)
7 | Cc1ccc(F)c(Nc2cc3nc(C(O)(C4CCN(C)CC4)C(F)(F)F)ccc3cn2)c1 (stereo not drawn) [Compound 390] | > 1000 | 100 to 1000 | ++ (greater than 10-fold and less than or equal to 100-fold more active against CDK5 than CDK2)
8 | CCC(O)(c1ccc2cnc(Nc3ccc(-n4cccn4)cc3F)cc2n1)C1CCN(C)CC1 (stereo not drawn) [Compound 392] | 100 to 1000 | 10 to 100 | ++ (greater than 10-fold and less than or equal to 100-fold more active against CDK5 than CDK2)
9 | CN1CCC(C(C)(O)c2ccc3cnc(Nc4ccc(-c5cccc(=O)[nH]5)cc4F)cc3n2)CC1 (stereo not drawn) [Compound 393] | 10 to 100 | < 10 | ++ (greater than 10-fold and less than or equal to 100-fold more active against CDK5 than CDK2)
10 | Cc1ccc(F)c(Nc2cc3nc(C(O)(C4CCN(C)CC4)C(F)(F)F)ccc3cn2)c1 (stereo not drawn) [Compound 394] | 10 to 100 | < 10 | ++ (greater than 10-fold and less than or equal to 100-fold more active against CDK5 than CDK2)
11 | CC(c1ccc2cnc(Nc3ccc(-c4cccc(C(N)=O)c4)cc3F)cc2n1)C1CCN(C)CC1 (stereo not drawn) [Compound 410, 3′-fluoro-4′-([2-[1-(1-methylpiperidin-4-yl)ethyl]-1,6-naphthyridin-7-yl]amino)-[1,1′-biphenyl]-3-carboxamide] | 100 to 1000 | < 10 | +++ (greater than 100-fold more active against CDK5 than CDK2)
12 | CN1CCC([C@@](C)(O)c2ccc3cnc(Nc4ccc(-c5cc[nH]n5)cc4F)cc3n2)CC1 [Compound 414, (1R)-1-(7-[[2-fluoro-4-(1H-pyrazol-3-yl)phenyl]amino]-1,6-naphthyridin-2-yl)-1-(1-methylpiperidin-4-yl)ethanol] | 10 to 100 | < 10 | ++ (greater than 10-fold and less than or equal to 100-fold more active against CDK5 than CDK2)
